{"source": "patent US10357474B2", "about": "“Preparation and use of a composition for prevention and mitigation of the effects of radiation” (BioVentures, LLC, priority 2013, dated 2019)", "key": {"[1]": {"tested_on": "H9c2 heart cardiomyocytes", "assay": "Morphology assay of cardiomyocytes exposed to H2O2", "type": "cell-based, rat", "description": "FIG. 3 is a set of photographs showing the cardiomyocytes after the indicated treatments. H9C2 heart cardiomyocytes were treated with 5 μM DT3 or 5 μM DG-3 or vehicle control (DMSO) overnight. Cells were then exposed to H2O2 for 4 h. Morphological changes were recorded under an inverted microscope.\n(§1) DG-3, provided herein, is a standardized extract derived from annatto seeds that contains only […] and GT3. Because radiation-induced mitochondrial damage and oxidative stress impacts several critical biologic parameters such as DNA damage repair and stem cell fate, in this research we have compared the effects of DT3, GT3, and DG-3 against radiation induced mitochondrial dysfunction and oxidative stress. […] Furthermore, the same treatment preserved the cell viability and mitochondrial respiration in these cells when followed by oxidative insult via H2O2 treatment. Methods of making DG-3 and methods of using these compositions are provided herein.\nH9c2 heart cardiomyocytes were treated with 5 μM DT3 or 5 μM DG-3 or vehicle control (DMSO) overnight. Cells were then exposed to 100 or 200 μM H2O2 for 4 h. Morphological changes were recorded under an inverted microscope."}, "[2]": {"tested_on": "Wistar rat liver microsomes", "assay": "Inhibition of TBHP induced lipid peroxidation in rat liver microsomes", "type": "biochemical", "conditions": "rat liver microsomes 1 mg/ml, 1 h pre-incubation at 37° C., 200 μM TBHP for 30 min; read-out: IC50 inhibition of lipid peroxidation (antioxidant potential)", "description": "Data are means±SEM of triplicate experiments. One of the most well-known properties of the vitamin E components is their ability to prevent lipid peroxidation. See Traber et al. (2011) Free Radic Biol Med 51(5):1000-1013. Briefly, the antioxidant activity of DG-3 was evaluated in rat liver microsomes by measuring inhibition of lipid peroxidation after TBHP ([…]) treatment. Wistar rat liver microsomes (BD Biosciences) were diluted in phosphate buffer, 0.1 M (pH 7.4), at the final protein concentration of 1 mg/ml. The microsomes were treated with different concentrations of DG-3 or DT3 (diluted with DMSO) and incubated at 37° C. for 1 hour before inducing lipid peroxidation with 200 μM TBHP (DMSO) for 30 min."}, "[3]": {"tested_on": "H9C2 rat heart cardiomyocyte cells", "assay": "Total antioxidant capacity (copper reducing equivalents) of cardiomyocytes", "type": "cell-based", "conditions": "5 μM treatment", "from_the_text": "as §1"}, "[4]": {"tested_on": "H9c2 heart cardiomyocytes", "assay": "Cellular bioenergetics measurements (oxygen consumption rate, XF96 Seahorse)", "type": "cell-based, rat", "conditions": "for Effect of H2O2 treatment on OCR after pre-treatment: 5 μM overnight pre-treatment", "description": "H9C2 heart cardiomyocytes were treated with 5 μM DT3 or 5 μM DG-3 or vehicle control (DMSO) overnight. Oxygen Consumption Rates (OCR) were measured and cellular bioenergetics profiles were determined using XF96 Seahorse Extracellular Flux Analyzer.\nFIG. 6 is a graph showing the effects of hydrogen peroxide on the OCR of cardiomyocytes after the indicated treatments. H9C2 heart cardiomyocytes were exposed to 50 or 100 μM H2O2 for 4 h. Oxygen Consumption Rates (OCR) were measured and cellular bioenergetics profiles were determined using XF96 Seahorse Extracellular Flux Analyzer.\n(§2) FIG. 7 is a graph showing the effects of 50 μM hydrogen peroxide on the OCR of cardiomyocytes after the indicated pre-treatment with DMSO (dimethylsulfoxide vehicle), DT3 or DG-3. Cellular bioenergetic profiles were determined using XF96 Seahorse Extracellular Flux Analyzer.\nFIG. 8 is a graph showing the effects of 100 μM hydrogen peroxide on the OCR of cardiomyocytes after the indicated pre-treatment with DMSO (dimethylsulfoxide vehicle), DT3 or DG-3. Cellular bioenergetic profiles were determined using XF96 Seahorse Extracellular Flux Analyzer.\nas §2, with “9” for “7”, “6 Gy ionizing radiation” for “50 μM hydrogen peroxide”, “vehicle).” for “vehicle),”, “Analyzer 1 h following radiation exposure.” for “Analyzer.”\nCellular oxygen consumption rates (OCR) were measured at 37° C. using an XF96 extracellular analyzer (Seahorse Bioscience) as previously described (Ferrick D A, Neilson A, and Beeson C. Advances in measuring cellular bioenergetics using extracellular flux. Drug Discov Today 2008; 13: 268-274). Briefly, 10,000 H9C2 cells per well were plated. The cells were treated with 5 μM DT3 or 5 μM DG-3 or vehicle control (DMSO) overnight. Cells were then exposed to 0, 50 or 100 μM H2O2 for 4 h or 6 Gy ionizing radiation (IR). The media in the wells were changed to unbuffered Dulbecco's Modified Eagle Medium (DMEM) supplemented with 4 mM […] and incubated in a non-CO2 incubator for 1 h at 37° C. Three baseline measurements were acquired before injection of mitochondrial inhibitors or uncouplers. Readings were taken after sequential addition of oligomycin (10 μM), FCCP (10 μM), and rotenone/antimycin A (10 μM). OCR was calculated by the Seahorse XF96 software and represents an average of 12-16 measurements."}, "[5]": {"conditions": "5 μM treatment followed by H2O2 treatment"}}, "data": [{"smiles": "CC(C)=CCC/C(C)=C/CC/C(C)=C/CC[C@]1(C)CCc2cc(O)cc(C)c2O1", "note": "[DT3, δ-tocotrienol]", "values": [{"measurement": "Morphological changes (cell damage) after H2O2", "setting": "[1]; 5 μM overnight pre-treatment, then 100 μM H2O2 for 4 h", "result": "damage is limited"}, {"measurement": "Morphological changes (cell monolayer) after H2O2", "setting": "[1]; 5 μM overnight pre-treatment, then 200 μM H2O2 for 4 h", "result": "still maintain a monolayer with only a few rounded cells"}, {"measurement": "Cell viability after oxidative insult via H2O2", "setting": "[1]; [5]", "result": "preserved"}, {"measurement": "IC50", "setting": "[2]", "result": 2580, "unit": "nM"}, {"measurement": "Total antioxidant capacity (copper reducing equivalents)", "setting": "[3]", "result": "did not change"}, {"measurement": "Effect of H2O2 treatment on OCR after pre-treatment", "setting": "[4]; 50 μM H2O2 for 4 h (FIG. 7)", "result": "eliminated"}, {"measurement": "Effect of H2O2 treatment on OCR after pre-treatment", "setting": "[4]; 100 μM H2O2 for 4 h (FIG. 8)", "result": "significantly reduced"}, {"measurement": "Oxygen consumption rate (OCR) compared to controls", "setting": "[4]; 5 μM overnight, no H2O2 (FIG. 5)", "result": "modestly improved"}, {"measurement": "Mitochondrial respiration after oxidative insult via H2O2", "setting": "[4]; [5]", "result": "preserved"}]}]}
